Test results from patent US6497862B2, “Composition for inhibiting body odor and uses thereof” (Kabushiki Kaisha Hayashibara, priority 2000, dated 2002).

Assays:
[1] = Panel test of body-odor-like smell (KAREI-SHU), 9-hexadecanoic acid heated (Experiment 3); set-up: key: +++: the same or higher level of odor; ++: slightly lower level of odor; +: clearly lower level of odor than the control system; settings: compared with control system
From the text: (§1) Upon the HSG samples, the level of a body-odor-like smell was examined on a panel test consisting of six professional panels; the panels directly smelled the samples from each glass vial and judged the level of the smells for each samples with test saccharides based on the following four ranks, i.e., the same or higher level of odor (+++), slightly lower level of odor (++), clearly lower level of odor (+), and odorless (−) as compared with the control system. Summing up the data from the panels, the samples tested were totally evaluated.
(§2) The content of 2-nonenal in HSG was measured by GC similarly as in Experiment 1 except that 9-hexadecanoic acid or palmitoleic acid was used as a fatty acid and 2-nonenal, a volatile aldehyde, was used as a standard substance. The level of body-odor-like smell, particularly with respect to KAREI-SHU, in each sample was evaluated by panel test in accordance with the method in Experiment 1.

[2] = Panel test of body-odor-like smell, oleic acid heated (Experiment 1); set-up: key: +++: the same or higher level of odor; ++: slightly lower level of odor; +: clearly lower level of odor than that of the control system; settings: oleic acid heated at 105° C. for one hour; six panels, compared with control system
Experimental: (§3) One hundred milligrams of oleic acid as a fatty acid, 500 mg of cellulose powder, and 1.25 ml of 0.12 M phosphate buffer (pH 6.0) were placed in a 20-ml glass vial. To the glass vial were added 100 mg of either of crystalline trehalose hydrate, crystalline maltitol anhydride, crystalline sorbitol anhydride, crystalline sucrose anhydride, crystalline maltose anhydride, and crystalline neotrehalose hydride as test saccharides (throughout Experiments 1 to 6, these saccharides are designated as “trehalose”, “maltitol”, sorbitol”, “sucrose”, “maltose”, and “neotrehalose”, respectively), followed by sealing the glass vial with a butyl rubber. As a control system, there provided a glass vial, with no a test saccharide, which differed from the test glass vial on this point. These glass vials were heated at 105° C. for one hour, cooled to ambient temperature, and kept in an aluminum heat-block (abbreviated as “heat block, hereinafter”), which had been preheated to 80° C. After 5-minutes standing, two milliliters of a head space gas (abbreviated as “HSG”, hereinafter) were collected from each glass vial with a syringe.
as §1

[3] = Panel test of smell, 9-hexadecanoic acid at 37° C. (Experiment 6); set-up: key: +++: the same or higher level of odor; ++: slightly lower level of odor; +: clearly lower level of odor than that of the control system; settings: 37° C., 9,000 lux
From the text: as §1
(§4) One hundred milligrams of 9-hexadecanoic acid as a fatty acid, 500 mg of a cellulose powder, and 1.25 ml of 0.12 M phosphate buffer (pH 6.0) were placed in a 20-ml glass vial. To the glass vial was added 100 mg of either of trehalose, maltitol and sucrose as a test saccharide, followed by sealing with a butyl rubber cap for use as a test system. As a control system, there provided a glass vial with no test saccharide that differed from the test systems only in this point. In both the test- and control-systems, they were respectively provided in doublet.
(§5) These glass vials were allowed to stand in a 37° C.-thermostatic-bath under the irradiation of 9,000 lux by a fluorescent lamp. At 3-days of standing, one of each pair of the vials containing the same composition, and 7-days of standing, the other vial of each resting pair of the vials were transferred to a heat block, which had been preheated to 80° C. and then kept therein for five minutes, followed by analyzing the content of 2-nonenal in HSG in each vial by GC similarly as in Experiment 2. After the collection of HSG, the smell from glass vials was evaluated by panel test in accordance with the method in Experiment 2.

[4] = Formation of 2-nonenal from linoleic acid by heating, GC of HSG (Experiment 2); settings: linoleic acid + 100 mg test saccharide, heated at 105° C. for one hour; control 5.75
Experimental: as §3
The collected HSG was analyzed for content of volatile aldehydes on gas chromatography (abbreviated as “GC” hereinafter) using “GAS CHROMATOGRAPH GC-14A”, as a GC apparatus; “CAPILLARY COLUMN SUPELCO-WAX”, having 0.25 mm in inner diameter, 60 m in length, and 0.25 μm in thickness, commercialized by Supelco Inc., Tokyo, Japan, as a column for analysis; helium gas at a flow rate of one ml/min as a carrier gas, under temperature conditions of 250° C. for injecting a sample and of a column thermostatic bath temperature being kept at 80° C. for five minutes and then increased up to 240° C. at a rate of 5° C./min. As standard specimens, propanal, butanal, and hexanal as volatile aldehydes were used. Based on the peak area obtained from gas chromatography for the standard specimens and HSG samples, the content of respective volatile aldehydes in HSG was calculated.
as §2, with “except that linoleic acid was” for “except that 9-hexadecanoic acid or palmitoleic acid was”, “level of a body-odor-like smell,” for “level of body-odor-like smell,”

[5] = Panel test of smell, 9-hexadecanoic acid at 37° C. (Experiment 6); set-up: key: +++: the same or higher level of odor; ++: slightly lower level of odor; +: clearly lower level of odor than that of the control system; −: odorless; settings: 3-days of standing, 37° C., 9,000 lux
From the text: as §1, §4
These glass vials were allowed to stand in a 37° C.-thermostatic-bath under the irradiation of 9,000 lux by a fluorescent lamp. […] After the collection of HSG, the smell from glass vials was evaluated by panel test in accordance with the method in Experiment 2.

[6] = Dispersion of 2-nonenal, GC of HSG (Experiment 4); settings: 10 mg 2-nonenal + 100 mg test saccharide, 80° C. 5 min (dispersion test); control 8.67
Experimental: Ten milligrams of 2-nonenal, 500 mg of a cellulose powder, and 1.25 ml of 0.12 M phosphate buffer (pH 6.0) were placed in a 20-ml glass vial. To the glass vial was added 100 mg of either of trehalose, maltitol and sucrose as a test saccharide, followed by sealing with a butyl rubber cap. As a control system, there provided a glass vial with no test saccharide that differed from the test systems only in this point. These glass vials were kept in a heat block, preheated to 80° C. After 5-min standing, the glass vials were sampled by two milliliters of HSG with a gas syringe. The content of 2-nonenal in the sampled HSG was measured by GC in accordance with the method in Experiment 2.

[7] = Formation of 2-nonenal from 9-hexadecanoic acid at the temperature of human body, GC of HSG (Experiment 6); settings: 37° C., 9,000 lux
Experimental: as §4, §5

[8] = 3-days of standing, control 0.03
[9] = 7-days of standing, control 16.8

Row | SMILES | Evaluation of panel test [1] | Evaluation of panel test [2] | Evaluation of panel test ([3]; 7-days of standing) | Content of 2-nonenal in HSG [4] | Evaluation of panel test [5] | Content of 2-nonenal in HSG [6] | Content of 2-nonenal in HSG [7, 8] | Content of 2-nonenal in HSG [7, 9] | Evaluation of panel test ([3]; 3-days of standing)
1 | OC[C@@H](O)[C@@H](O[C@H]1O[C@H](CO)[C@@H](O)[C@H](O)[C@H]1O)[C@H](O)[C@@H](O)CO [Maltitol, maltitol] | + | ++ | + | 1.73 µg/mL | − | 8.27 µg/mL | 0.00 µg/mL | 2.77 µg/mL | 
2 | OC[C@H]1O[C@H](O[C@H]2O[C@H](CO)[C@@H](O)[C@H](O)[C@H]2O)[C@H](O)[C@@H](O)[C@@H]1O [Trehalose, trehalose] | + | + | + | 1.27 µg/mL | − | 8.60 µg/mL | 0.00 µg/mL | 2.64 µg/mL | 
3 | OC[C@H]1O[C@@](CO)(O[C@H]2O[C@H](CO)[C@@H](O)[C@H](O)[C@H]2O)[C@@H](O)[C@@H]1O [Sucrose, sucrose] |  | +++ | +++ | 5.41 µg/mL |  | 8.70 µg/mL | 0.26 µg/mL | 16.4 µg/mL | ++
